Measurements from PubChem BioAssay AID330 (DTP/NCI, 2004).
Values joined by “and” are separate entries in the source; they are usually repeats but may differ in a detail not shown here. Equal values may be shown once. Inconclusive results and toxic doses are left out.

Tested on: P388 leukemia ip, CD2F1 mice, survival T/C
Assay: NCI In Vivo Anticancer Drug Screen. Data for tumor model P388 Leukemia (intraperitoneal) in CD2F1 (CDF1) mice
Settings: endpoint: median survival time, higher = longer survival
In short: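 Mice carrying the transplanted tumor received test compound or vehicle. Survival was recorded in each group, and the value is the treated-group measurement divided by that of the vehicle-treated control group.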

[1] = dose: 50.0 mg/kg/injection, schedule: Q01DX009 (ip), vehicle: saline with Tween-80
[2] = dose: 100.0 mg/kg/injection, schedule: Q01DX009 (ip), vehicle: saline with Tween-80
[3] = dose: 200.0 mg/kg/injection, schedule: Q01DX009 (ip), vehicle: saline with Tween-80
[4] = dose: 50.0 mg/kg/injection, schedule: Q01DX005 (ip), vehicle: Klucel (hydroxypropylcellulose) (HPC)
[5] = dose: 100.0 mg/kg/injection, schedule: Q01DX005 (ip), vehicle: Klucel (hydroxypropylcellulose) (HPC)
[6] = dose: 50.0 mg/kg/injection, schedule: Q01DX005 (ip), vehicle: saline with Tween-80
[7] = dose: 100.0 mg/kg/injection, schedule: Q01DX005 (ip), vehicle: saline with Tween-80
[8] = dose: 200.0 mg/kg/injection, schedule: Q01DX005 (ip), vehicle: saline with Tween-80
[9] = dose: 50.0 mg/kg/injection, schedule: Q01DX009 (ip), vehicle: Klucel (hydroxypropylcellulose) (HPC)
[10] = dose: 100.0 mg/kg/injection, schedule: Q01DX009 (ip), vehicle: Klucel (hydroxypropylcellulose) (HPC)
[11] = dose: 200.0 mg/kg/injection, schedule: Q01DX009 (ip), vehicle: Klucel (hydroxypropylcellulose) (HPC)
[12] = dose: 50.0 mg/kg/injection, schedule: Q01DX009 (ip), vehicle: saline
[13] = dose: 100.0 mg/kg/injection, schedule: Q01DX009 (ip), vehicle: saline
[14] = dose: 200.0 mg/kg/injection, schedule: Q01DX009 (ip), vehicle: saline
[15] = dose: 100.0 mg/kg/injection, schedule: Q01DX001 (ip), vehicle: Klucel (hydroxypropylcellulose) (HPC)
[16] = dose: 200.0 mg/kg/injection, schedule: Q01DX001 (ip), vehicle: Klucel (hydroxypropylcellulose) (HPC)

`COC1/C=C/OC2(C)Oc3c(C)c(O)c4c(O)c(c(/C=N/N5C(C)CN(Cc6ccc(NC(C)=O)cc6)CC5C)c(O)c4c3C2=O)NC(=O)C(C)=C/C=C/C(C)C(O)C(C)C(O)C(C)C(OC(C)=O)C1C` (stereo not given) was tested, and the T/C (dose: 12.5 mg/kg/injection, schedule: Q01DX009 (ip), vehicle: suspension in saline) was 110 % of control, the T/C (dose: 25.0 mg/kg/injection, schedule: Q01DX009 (ip), vehicle: saline with Tween-80) was 119 % of control and the T/C (dose: 25.0 mg/kg/injection, schedule: Q01DX009 (ip), vehicle: suspension in saline) was 110 % of control. For the same compound, the T/C [1] was 99 % of control, the T/C (dose: 50.0 mg/kg/injection, schedule: Q01DX009 (ip), vehicle: suspension in saline) was 108 % of control and the T/C [2] was 99 % of control and 103 % of control. For the same compound, the T/C (dose: 100.0 mg/kg/injection, schedule: Q01DX009 (ip), vehicle: suspension in saline) was 99 % of control and the T/C [3] was 110 % of control and 119 % of control.

In the case of `COC(=O)C(=O)c1c(C(=O)OC)nc2nnc(N)n2c1C1CC1`, the T/C (dose: 60.0 mg/kg/injection, schedule: Q01DX005 (ip), vehicle: saline with Tween-80) is reported as 100 % of control, the T/C (dose: 120.0 mg/kg/injection, schedule: Q01DX005 (ip), vehicle: saline with Tween-80) is reported as 107 % of control and the T/C (dose: 240.0 mg/kg/injection, schedule: Q01DX005 (ip), vehicle: saline with Tween-80) is reported as 105 % of control.

With `CCOC(=O)c1cnc(-c2ccccc2)n(-c2ccccc2)c1=O` the T/C [4] was 105 % of control and the T/C [5] was 107 % of control.

With `CCN(CC)[Si](C)(C)C` the T/C (dose: 60.0 mg/kg/injection, schedule: Q01DX005 (ip), vehicle: saline) was 93 % of control and the T/C (dose: 120.0 mg/kg/injection, schedule: Q01DX005 (ip), vehicle: saline) was 94 % of control.

For `CN1CCC(OC(=O)c2ccc3ncccc3c2)CC1`, the T/C (dose: 50.0 mg/kg/injection, schedule: Q04DX003 (ip), vehicle: saline) was 100 % of control and the T/C (dose: 100.0 mg/kg/injection, schedule: Q04DX003 (ip), vehicle: saline) was 98 % of control.

With `CC(C)(O)CCC(=O)[C@](C)(O)[C@H]1[C@H](O)C[C@@]2(C)[C@@H]3CC=C4[C@@H](C[C@@H](O)[C@@H](O)C4(C)C)[C@]3(C)C(=O)C[C@]12C` the T/C (dose: 1.25 mg/kg/injection, schedule: Q01DX005 (ip), vehicle: saline with Tween-80) was 100 % of control, the T/C (dose: 2.5 mg/kg/injection, schedule: Q01DX005 (ip), vehicle: saline with Tween-80) was 97 % of control and the T/C (dose: 5.0 mg/kg/injection, schedule: Q01DX005 (ip), vehicle: saline with Tween-80) was 95 % of control. The T/C (dose: 10.0 mg/kg/injection, schedule: Q01DX005 (ip), vehicle: saline with Tween-80) was 104 % of control.

`CCSC(SCC)C(NC(C)=O)C(O)C(O)C(O)CO` (stereo not given) was tested, and the T/C (dose: 12.5 mg/kg/injection, schedule: Q01DX009 (ip), vehicle: water) was 114 % of control, the T/C (dose: 25.0 mg/kg/injection, schedule: Q01DX009 (ip), vehicle: water) was 113 % of control and the T/C (dose: 50.0 mg/kg/injection, schedule: Q01DX009 (ip), vehicle: water) was 107 % of control. The T/C (dose: 100.0 mg/kg/injection, schedule: Q01DX009 (ip), vehicle: water) was 109 % of control and the T/C (dose: 200.0 mg/kg/injection, schedule: Q01DX009 (ip), vehicle: water) was 106 % of control.

In the case of `NS(=O)(=O)c1ccc(N=c2c3ccccc3n(-c3ccccc3)c3ccccc23)cc1`, the T/C [6] is reported as 102 % of control, the T/C [7] is reported as 93 % of control and the T/C [8] is reported as 90 % of control.

With `O=S1(=O)OC2(CCCCC2)c2ccccc21` the T/C [9] was 106 % of control, the T/C [10] was 108 % of control and the T/C [11] was 108 % of control. For the same compound, the T/C (dose: 400.0 mg/kg/injection, schedule: Q01DX009 (ip), vehicle: Klucel (hydroxypropylcellulose) (HPC)) was 109 % of control.

With `Cc1cccc(Br)[n+]1[O-]` the T/C (dose: 12.5 mg/kg/injection, schedule: Q01DX001 (ip), vehicle: saline) was 100 % of control, the T/C (dose: 25.0 mg/kg/injection, schedule: Q01DX001 (ip), vehicle: saline) was 109 % of control and the T/C (dose: 50.0 mg/kg/injection, schedule: Q01DX001 (ip), vehicle: saline) was 100 % of control.

`O=C=Nc1cccc2c1C(=O)c1ccccc1-2` was tested, and the T/C [4] was 91 % of control, the T/C [5] was 88 % of control and the T/C (dose: 200.0 mg/kg/injection, schedule: Q01DX005 (ip), vehicle: Klucel (hydroxypropylcellulose) (HPC)) was 86 % of control.

For `COc1cc(C(=O)NOCc2cc3c(cc2Cl)OCO3)cc(OC)c1OC`, the T/C (dose: 100.0 mg/kg/injection, schedule: Q04DX003 (ip), vehicle: saline sonified) was 90 % of control and the T/C (dose: 400.0 mg/kg/injection, schedule: Q04DX003 (ip), vehicle: saline sonified) was 90 % of control.

For `COc1ccccc1NC(=O)C1=C(C)NC(C)=C(C(=O)Nc2ccccc2OC)C1c1c(Cl)cccc1Cl`, the T/C [6] was 94 % of control, the T/C [7] was 98 % of control and the T/C [8] was 95 % of control.

`O=C(Nc1cc(C(F)(F)F)ccc1Cl)n1nc(Cl)c2ccc([N+](=O)[O-])cc21` was tested, and the T/C [1] was 102 % of control, the T/C [2] was 104 % of control and the T/C [3] was 95 % of control.

For `O=[N+]([O-])c1cc2c(cc1Br)C1C(C3C2C2(Cl)C(Cl)=C(Cl)C3(Cl)C2(Cl)Cl)C2(Cl)C(Cl)=C(Cl)C1(Cl)C2(Cl)Cl` (stereo not given), the T/C [12] was 107 % of control, the T/C [13] was 105 % of control and the T/C [14] was 108 % of control.

With `CN(Cc1ccccc1)C(=O)C(=O)c1c[nH]c2ccccc12` the T/C [2] was 86 % of control and the T/C [3] was 90 % of control.

`CN(C)C1(c2ccccc2)N=NN=S1C` (stereo not given) was tested, and the T/C (dose: 100.0 mg/kg/injection, schedule: Q04DX003 (ip), vehicle: saline with Tween-80) was 105 % of control and the T/C (dose: 200.0 mg/kg/injection, schedule: Q04DX003 (ip), vehicle: saline with Tween-80) was 105 % of control.

In the case of `Cc1cnc(C2OCCO2)c2cccc([N+](=O)[O-])c12`, the T/C [9] is reported as 105 % of control, the T/C [10] is reported as 105 % of control and the T/C [11] is reported as 101 % of control.

`O=C(N1CCC(CCCC2CCN(C(=O)C(F)(F)C(F)(F)C(F)(F)C(F)(F)C(F)(F)C(F)(F)C(F)(F)F)CC2)CC1)C(F)(F)C(F)(F)C(F)(F)C(F)(F)C(F)(F)C(F)(F)C(F)(F)F` was tested, and the T/C [12] was 98 % of control, the T/C [13] was 96 % of control and the T/C [14] was 95 % of control.

In the case of `COc1cc(OC)c2c(c1)C(=O)[C@]1(C)C3(C)OC(=O)C(c4ccccc43)[C@]21C` (stereo not given in full), the T/C [15] is reported as 102 % of control, the T/C [16] is reported as 100 % of control and the T/C (dose: 400.0 mg/kg/injection, schedule: Q01DX001 (ip), vehicle: Klucel (hydroxypropylcellulose) (HPC)) is reported as 105 % of control.

`OCCCOCCCOCCCOCCCO` was tested, and the T/C (dose: 100.0 mg/kg/injection, schedule: Q01DX001 (ip), vehicle: saline) was 101 % of control, the T/C (dose: 200.0 mg/kg/injection, schedule: Q01DX001 (ip), vehicle: saline) was 108 % of control and the T/C (dose: 400.0 mg/kg/injection, schedule: Q01DX001 (ip), vehicle: saline) was 101 % of control.

In the case of `N=C(N)c1ccc(NN=Nc2cccc3c2Oc2ccccc2O3)cc1`, the T/C [6] is reported as 106 % of control, the T/C [7] is reported as 103 % of control and the T/C [8] is reported as 95 % of control.

In the case of `Cc1ccc(OP(=O)(Oc2ccc(C)cc2)Oc2ccc(C)cc2)cc1.Cc1ccc(OP(=O)(Oc2ccc(C)cc2)Oc2ccc(C)cc2)cc1.Cc1ccc(OP(=O)(Oc2ccc(C)cc2)Oc2ccc(C)cc2)cc1.Cc1ccc(OP(=O)(Oc2ccc(C)cc2)Oc2ccc(C)cc2)cc1.[Cu+2].[O-][Cl+3]([O-])([O-])O`, the T/C (dose: 50.0 mg/kg/injection, schedule: Q01DX001 (ip), vehicle: Klucel (hydroxypropylcellulose) (HPC)) is reported as 96 % of control, the T/C [15] is reported as 94 % of control and the T/C [16] is reported as 92 % of control.

`BrCc1cn(Cc2ccccc2)nn1` was tested, and the T/C [12] was 97 % of control and the T/C [13] was 97 % of control.

With `CC(C)(C)NC(=O)OCc1c(COC(=O)NC(C)(C)C)c(-c2ccc(Cl)c(Cl)c2)n2c1CCC2` the T/C (dose: 6.25 mg/kg/injection, schedule: Q01DX009 (ip), vehicle: distilled water + Tween-80) was 123 % of control, the T/C (dose: 12.5 mg/kg/injection, schedule: Q01DX009 (ip), vehicle: distilled water + Tween-80) was 124 % of control and the T/C (dose: 50.0 mg/kg/injection, schedule: Q01DX009 (ip), vehicle: distilled water + Tween-80) was 158 % of control and 164 % of control. The T/C (dose: 100.0 mg/kg/injection, schedule: Q01DX009 (ip), vehicle: distilled water + Tween-80) was 164 % of control and 167 % of control, the T/C (dose: 200.0 mg/kg/injection, schedule: Q01DX009 (ip), vehicle: distilled water + Tween-80) was 172 % of control and the T/C (dose: 400.0 mg/kg/injection, schedule: Q01DX009 (ip), vehicle: distilled water + Tween-80) was 117 % of control.
